{
  "source": "patent US20230025003A1",
  "about": "“DIABETES THERAPY TARGETING ABNORMAL STEM CELLS” (Biozipcode, Inc., priority 2019, published 2023)",
  "tested_on": "diabetic patients (type 1 and type 2 diabetes mellitus)",
  "assay": "Research Plan 2: therapy of diabetes mellitus targeting a bone marrow-derived abnormal hematopoietic stem cell",
  "assay_type": "in vivo, human",
  "conditions": "type 1 and type 2 diabetic patients; 12 weeks therapy; predicted result",
  "data": [
    {"substance": "insulin alone: insulin therapy alone (control group of Research Plan 2)", "values": [
      {"measurement": "Effect of eliminating an abnormal hematopoietic stem cell", "value": "not eliminated"},
      {"measurement": "Effect of healing diabetes mellitus", "value": "not observed"},
      {"measurement": "Therapeutic effect on a complication", "value": "observed to some extent, but the complication does not heal"}
    ]}
  ]
}
